The results in this text go back to patent US20090298878A1, “OXIME COMPOUNDS AND THE USE THEREOF” (priority 2006, published 2009).

Assay [1] addresses T1, N-type calcium channel (NTCC) (Homo sapiens, UniProt Q00975).
T1 construct: host or cells: IMR32 cells differentiated with dibutyryl cAMP and bromodeoxyuridine
Description: FLIPR calcium mobilization assay for N-type calcium channel (differentiated IMR32 cells). The format is cell-based. The conditions noted are these: calcium mobilization in vitro assay, N-type calcium channel blockers. The method in brief: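 Human IMR32 cells differentiated 8 days (1 mM dibutyryl cAMP, 2.5 μM BrdU), pre-stimulated 1 h with 90 mM KCl plus compound (~846 pM–17 μM) and 5 μM nitrendipine, Fluo-4 loaded. FLIPR read basal fluorescence 315 s, then 90 mM KCl agonist added and fluorescence recorded 45 s; non-linear regression.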

In assay [2] the target is T2, L-type calcium channel (LTCC) subunits (α1c, α2δ, and β1) (Rattus norvegicus, UniProt P22002).
T2 construct: expressed in transfected cells; pcDNA6.2DEST for α1c, pcDNA3.2DEST for β1, pcDNA3.1-Zeo for α2δ
Put plainly: FLIPR calcium mobilization assay for L-type calcium channel (HEK293 cells expressing recombinant rat LTCC subunits). The format is cell-based. The note with it: calcium mobilization in vitro assay, L-type calcium channel blockers. As to the method: Recombinant human embryonal kidney cells (HEK293, ATCC) stably transfected with either N-type calcium channel (NTCC) subunits (α1b, α2δ, and β3) or L-type calcium channel (LTCC) subunits (α1c, α2δ, and β1) were routinely cultured in growth medium consisting of Dulbecco's Modified Eagles Medium containing 10% FBS, 100 U/mL penicillin, 100 μg/mL streptomycin, 4 mM L-glutamine, 500 μg/mL geneticin (G418), 20 μg/mL Blasticidin S (InVivogen, San Diego, Calif.) and 500 μg/mL zeocin (InVivogen).
FLIPR Calcium Mobilization Assay for L-type Calcium Channel. One day prior to performing this assay, HEK293 cells stably expressing recombinant rat L-type calcium channel (LTCC) subunits (α1c, α2δ, and β1) were trypsinized, then seeded on poly-D-lysine-coated 96-well clear-bottom black plates (Becton Dickinson, Franklin Lakes, N.J.) at 75,000 cells/well. On the day of the assay, the plates were washed with LTCC wash buffer (127 mM NaCl, 2 mM MgCl2, 700 μM NaH2PO4, […], 5 mM NaHCO3, 8 mM HEPES, 10 mM glucose, pH 7.4), then loaded with 0.1 mL of LTCC wash buffer containing Fluo-4 (3 μM final concentration, Molecular Probes, Eugene, Oreg.). After 1 hour, the cells were washed with 0.1 mL LTCC wash buffer and resuspended in 0.05 mL LTCC assay buffer (same composition as LTCC wash buffer). Plates were then transferred to a FLIPR^96 for assay. The FLIPR measured basal Fluo-4 fluorescence for 15 seconds, then added 0.05 mL of each compound tested diluted in LTCC assay buffer at final concentrations ranging from about 846 pM to about 17 μM. Fluo-4 fluorescence was then measured for 5 minutes. 0.1 mL KCl agonist dissolved in LTCC assay buffer was then added to the cells to produce a final concentration of 90 mM KCl, and fluorescence was measured for another 45 seconds. Data were collected over the entire time course and analyzed using Excel, Graph Pad Prism, or an in-house regression analysis software.
Cloning of N- and L-type calcium channel subunit open reading frame cDNAs. Five cDNAs encoding subunits of the rat N- or L-type calcium channels were cloned by PCR amplification in order to reconstitute functional channels in a heterologous system. These were the alpha1b (α1b), beta1 (β1), beta3 (β3), alpha2delta (α2δ), and alpha1c (α1c) subunit cDNAs. The alpha1b subunit cDNA has been described by Dubel et al. in Proc. Natl. Acad. Sci. U.S.A 89: 5058-5062 (1992). The beta1 subunit cDNA has been described by Pragnell et al. in FEBS Lett. 291: 253-258 (1991). The beta3 subunit cDNA has been described by Castellano et al. in J. Biol. Chem. 268: 12359-12366 (1993). The alpha2delta subunit cDNA has been described by Kim et al. in Proc. Natl. Acad. Sci. U.S.A. 89: 3251-3255 (1992). The alpha1c subunit cDNA has been described by Koch et al. in J. Biol. Chem. 265: 17786-17791 (1990).
The 6.5 kb cDNA encoding the L-type calcium channel α1c subunit was cloned by PCR amplification from rat heart cDNA using primers 11 (SEQ ID NO: 11, TABLE 1) and 12 (SEQ ID NO:12, TABLE 1). The PCR fragment was subcloned and fully sequenced on both strands to confirm its identity. A clone matching consensus reference sequence M59786 and rat genomic DNA sequences was recombined into the mammalian expression vector pcDNA6.2DEST. Sequences around the recombinogenic region were sequenced to confirm accurate recombination into the expression vector.
L-type Recombinant Cell Line Development. L-type calcium channel expressing HEK-293 cells were created in two stages. Stage 1 was created as follows. The rat α1c, and β1 cDNA expression constructs (2.5 μg each) were co-transfected into human embryonic kidney (HEK-293) cells by Lipofectamine Plus reagent (Invitrogen), as per manufacturer's instructions. 24 hours later, cells were split in limiting dilution into multiple 96-well plates in selection media containing 20 μg/mL blasticidin and 500 μg/mL geneticin, and incubated for 3 weeks at 37° C., 5% CO2, 95% humidity. […]

SMILES strings stand for the structures. Where a name gives a salt, the structure may show the parent alone.

T2 sequence (P22002 whole entry): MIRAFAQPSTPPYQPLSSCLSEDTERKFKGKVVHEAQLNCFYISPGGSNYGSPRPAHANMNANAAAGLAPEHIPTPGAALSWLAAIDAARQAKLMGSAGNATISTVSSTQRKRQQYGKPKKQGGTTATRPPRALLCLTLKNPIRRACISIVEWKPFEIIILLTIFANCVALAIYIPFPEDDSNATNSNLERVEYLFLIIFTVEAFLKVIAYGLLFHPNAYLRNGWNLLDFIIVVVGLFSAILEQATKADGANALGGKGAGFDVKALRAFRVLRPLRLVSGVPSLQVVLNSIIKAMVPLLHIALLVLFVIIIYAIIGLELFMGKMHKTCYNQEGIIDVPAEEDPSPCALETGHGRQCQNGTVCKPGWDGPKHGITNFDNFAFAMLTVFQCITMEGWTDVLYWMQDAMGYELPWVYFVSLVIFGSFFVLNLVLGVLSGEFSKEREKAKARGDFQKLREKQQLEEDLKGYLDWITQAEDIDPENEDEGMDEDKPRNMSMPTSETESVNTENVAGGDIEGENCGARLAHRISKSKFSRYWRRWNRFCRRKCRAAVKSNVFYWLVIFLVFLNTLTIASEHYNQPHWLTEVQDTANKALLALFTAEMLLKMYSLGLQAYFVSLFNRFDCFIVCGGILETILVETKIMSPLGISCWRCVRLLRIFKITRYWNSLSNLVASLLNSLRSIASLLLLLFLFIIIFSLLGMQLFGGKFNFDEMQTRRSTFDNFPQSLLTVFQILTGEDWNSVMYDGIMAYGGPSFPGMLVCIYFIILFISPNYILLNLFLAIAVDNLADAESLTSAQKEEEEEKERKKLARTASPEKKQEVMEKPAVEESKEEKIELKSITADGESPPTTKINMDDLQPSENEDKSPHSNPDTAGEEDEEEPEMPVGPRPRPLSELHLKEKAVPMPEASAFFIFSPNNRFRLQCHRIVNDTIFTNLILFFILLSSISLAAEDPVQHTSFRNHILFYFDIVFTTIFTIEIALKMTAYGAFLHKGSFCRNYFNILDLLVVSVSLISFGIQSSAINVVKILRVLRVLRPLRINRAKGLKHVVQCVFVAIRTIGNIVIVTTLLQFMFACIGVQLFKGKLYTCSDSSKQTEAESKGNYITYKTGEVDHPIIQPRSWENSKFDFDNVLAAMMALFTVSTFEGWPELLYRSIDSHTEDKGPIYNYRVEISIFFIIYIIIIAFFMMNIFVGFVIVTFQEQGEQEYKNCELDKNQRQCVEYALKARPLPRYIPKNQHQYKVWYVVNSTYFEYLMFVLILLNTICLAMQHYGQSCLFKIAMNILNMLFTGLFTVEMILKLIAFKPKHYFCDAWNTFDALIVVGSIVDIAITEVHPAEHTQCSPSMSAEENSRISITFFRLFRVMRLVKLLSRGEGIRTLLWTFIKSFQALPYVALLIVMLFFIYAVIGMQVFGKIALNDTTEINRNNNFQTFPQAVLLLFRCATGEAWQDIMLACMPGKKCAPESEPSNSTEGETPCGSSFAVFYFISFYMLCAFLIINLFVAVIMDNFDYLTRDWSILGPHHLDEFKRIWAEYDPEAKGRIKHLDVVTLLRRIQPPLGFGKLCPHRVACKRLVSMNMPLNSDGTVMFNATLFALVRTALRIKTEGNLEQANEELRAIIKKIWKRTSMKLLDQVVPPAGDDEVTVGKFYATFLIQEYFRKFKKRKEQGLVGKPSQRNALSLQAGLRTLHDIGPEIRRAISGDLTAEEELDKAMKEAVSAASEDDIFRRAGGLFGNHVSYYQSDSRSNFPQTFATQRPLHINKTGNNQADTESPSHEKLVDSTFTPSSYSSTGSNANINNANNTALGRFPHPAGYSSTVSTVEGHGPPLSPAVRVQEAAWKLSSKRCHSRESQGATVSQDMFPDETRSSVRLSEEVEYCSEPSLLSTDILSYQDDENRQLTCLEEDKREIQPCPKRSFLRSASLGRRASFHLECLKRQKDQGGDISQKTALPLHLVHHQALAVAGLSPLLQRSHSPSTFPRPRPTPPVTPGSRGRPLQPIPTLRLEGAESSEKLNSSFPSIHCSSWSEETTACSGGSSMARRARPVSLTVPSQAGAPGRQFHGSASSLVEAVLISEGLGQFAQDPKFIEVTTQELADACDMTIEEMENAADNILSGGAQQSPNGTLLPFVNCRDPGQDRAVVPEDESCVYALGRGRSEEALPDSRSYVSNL
T1 sequence (Q00975 whole entry): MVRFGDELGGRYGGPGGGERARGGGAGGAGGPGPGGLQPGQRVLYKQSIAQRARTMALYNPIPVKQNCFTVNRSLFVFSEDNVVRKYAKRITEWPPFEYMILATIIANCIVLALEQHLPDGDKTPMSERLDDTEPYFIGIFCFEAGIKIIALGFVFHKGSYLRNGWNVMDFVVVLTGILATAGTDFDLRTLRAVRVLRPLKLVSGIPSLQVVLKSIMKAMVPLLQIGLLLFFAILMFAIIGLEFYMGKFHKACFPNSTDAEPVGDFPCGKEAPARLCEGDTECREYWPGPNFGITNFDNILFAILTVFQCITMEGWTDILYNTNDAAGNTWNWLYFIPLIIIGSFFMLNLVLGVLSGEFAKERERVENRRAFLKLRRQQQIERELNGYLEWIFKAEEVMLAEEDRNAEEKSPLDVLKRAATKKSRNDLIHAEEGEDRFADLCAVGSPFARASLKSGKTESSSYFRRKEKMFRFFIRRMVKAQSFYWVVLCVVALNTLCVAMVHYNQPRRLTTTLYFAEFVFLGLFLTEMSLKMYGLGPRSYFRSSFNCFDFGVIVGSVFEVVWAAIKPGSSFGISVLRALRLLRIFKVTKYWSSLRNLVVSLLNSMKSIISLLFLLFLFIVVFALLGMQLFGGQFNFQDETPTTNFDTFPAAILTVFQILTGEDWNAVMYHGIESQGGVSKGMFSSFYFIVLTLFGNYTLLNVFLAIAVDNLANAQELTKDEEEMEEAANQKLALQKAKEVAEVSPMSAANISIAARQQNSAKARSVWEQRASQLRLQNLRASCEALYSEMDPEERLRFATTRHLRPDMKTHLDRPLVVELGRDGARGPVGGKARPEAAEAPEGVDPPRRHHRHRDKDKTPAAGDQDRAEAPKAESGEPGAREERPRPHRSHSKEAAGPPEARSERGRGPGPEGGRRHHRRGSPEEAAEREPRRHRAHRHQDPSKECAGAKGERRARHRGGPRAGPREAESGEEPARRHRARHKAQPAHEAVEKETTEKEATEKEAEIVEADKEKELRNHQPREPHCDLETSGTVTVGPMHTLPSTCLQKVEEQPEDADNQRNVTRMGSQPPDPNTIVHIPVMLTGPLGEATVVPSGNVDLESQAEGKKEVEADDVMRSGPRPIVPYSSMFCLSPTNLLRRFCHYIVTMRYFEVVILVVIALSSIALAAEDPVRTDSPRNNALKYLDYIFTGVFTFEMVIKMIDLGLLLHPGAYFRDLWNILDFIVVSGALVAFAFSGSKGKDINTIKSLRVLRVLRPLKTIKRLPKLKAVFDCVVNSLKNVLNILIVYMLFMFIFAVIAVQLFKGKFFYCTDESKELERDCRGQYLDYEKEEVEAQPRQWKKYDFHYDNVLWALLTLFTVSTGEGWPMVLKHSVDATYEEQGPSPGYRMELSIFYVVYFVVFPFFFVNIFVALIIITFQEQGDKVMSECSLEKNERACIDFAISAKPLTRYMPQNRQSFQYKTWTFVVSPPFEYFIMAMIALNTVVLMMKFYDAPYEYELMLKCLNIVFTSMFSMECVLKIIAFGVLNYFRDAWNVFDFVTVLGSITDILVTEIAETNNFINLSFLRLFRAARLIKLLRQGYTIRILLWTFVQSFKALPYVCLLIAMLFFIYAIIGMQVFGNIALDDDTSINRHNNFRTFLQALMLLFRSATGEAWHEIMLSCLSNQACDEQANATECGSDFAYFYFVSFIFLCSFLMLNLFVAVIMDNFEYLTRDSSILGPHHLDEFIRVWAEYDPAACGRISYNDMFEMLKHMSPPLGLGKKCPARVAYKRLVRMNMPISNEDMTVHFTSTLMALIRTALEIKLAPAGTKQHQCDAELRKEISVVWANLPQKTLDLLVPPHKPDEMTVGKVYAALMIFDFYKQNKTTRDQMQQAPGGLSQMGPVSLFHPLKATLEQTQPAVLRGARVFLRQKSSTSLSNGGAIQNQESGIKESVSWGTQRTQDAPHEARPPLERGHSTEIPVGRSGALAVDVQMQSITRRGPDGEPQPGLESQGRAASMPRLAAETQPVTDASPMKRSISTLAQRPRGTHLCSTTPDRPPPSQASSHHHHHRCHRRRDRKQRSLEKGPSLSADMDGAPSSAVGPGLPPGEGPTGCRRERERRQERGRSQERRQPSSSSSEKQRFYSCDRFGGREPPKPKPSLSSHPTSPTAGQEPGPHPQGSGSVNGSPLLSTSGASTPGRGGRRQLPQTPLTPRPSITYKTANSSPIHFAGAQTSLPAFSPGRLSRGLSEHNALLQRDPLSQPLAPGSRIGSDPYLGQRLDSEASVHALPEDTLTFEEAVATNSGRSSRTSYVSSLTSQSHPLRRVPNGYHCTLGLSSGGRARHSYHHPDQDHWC

In the case of `CC(C)C[C@H](N)CC(=O)N1CCC(=NOCc2cccc(C(F)(F)F)c2)CC1` [Example 24, 1-((S)-3-Amino-5-methylhexanoyl)piperidin-4-one O-(3-trifluoromethylbenzyl)oxime oxalate], the IC50 in assay [1] was 0.99 µM; in assay [2], 7.2 µM.
